Calls of active or inactive are those of the source. The rule behind the calls is not given here. Some results are limits rather than exact numbers.

Test [1] concerns the target T1, Cytochrome P450 11B1, mitochondrial (Homo sapiens, UniProt P15538).
T1 sequence (P15538 whole entry): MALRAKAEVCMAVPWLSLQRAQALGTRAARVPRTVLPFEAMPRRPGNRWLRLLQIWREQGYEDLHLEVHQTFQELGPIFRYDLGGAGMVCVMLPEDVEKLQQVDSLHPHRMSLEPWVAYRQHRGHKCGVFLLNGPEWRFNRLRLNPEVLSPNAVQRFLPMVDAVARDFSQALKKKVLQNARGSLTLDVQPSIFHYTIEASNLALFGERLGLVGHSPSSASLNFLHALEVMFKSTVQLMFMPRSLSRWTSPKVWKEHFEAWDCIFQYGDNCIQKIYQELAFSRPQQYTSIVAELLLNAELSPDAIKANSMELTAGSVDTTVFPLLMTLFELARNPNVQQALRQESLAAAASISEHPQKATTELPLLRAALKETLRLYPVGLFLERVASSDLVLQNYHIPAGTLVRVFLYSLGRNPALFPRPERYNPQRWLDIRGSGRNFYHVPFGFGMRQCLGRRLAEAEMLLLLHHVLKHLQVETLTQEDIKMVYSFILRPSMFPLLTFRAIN
Briefly: Inhibition of human CYP11B1 expressed in HEK293A cells. Type of test: ADME, cell-based, HEK293.

Test [2] concerns the target T2, Cytochrome P450 11B2, mitochondrial (Homo sapiens, UniProt P19099).
T2 sequence (P19099 whole entry): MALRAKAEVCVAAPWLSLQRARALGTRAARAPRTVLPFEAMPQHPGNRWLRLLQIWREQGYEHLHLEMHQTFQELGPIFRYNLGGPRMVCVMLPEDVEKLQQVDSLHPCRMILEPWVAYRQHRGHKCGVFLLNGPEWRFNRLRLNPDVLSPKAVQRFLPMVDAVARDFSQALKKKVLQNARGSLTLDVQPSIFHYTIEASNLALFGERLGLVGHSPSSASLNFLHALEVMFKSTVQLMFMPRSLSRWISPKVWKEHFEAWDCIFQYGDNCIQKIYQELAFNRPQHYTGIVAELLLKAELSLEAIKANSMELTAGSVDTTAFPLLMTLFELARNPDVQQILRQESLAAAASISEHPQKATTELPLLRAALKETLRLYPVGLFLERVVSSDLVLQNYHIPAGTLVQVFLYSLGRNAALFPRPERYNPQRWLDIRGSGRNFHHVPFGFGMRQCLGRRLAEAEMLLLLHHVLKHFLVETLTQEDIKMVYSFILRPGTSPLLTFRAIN
Description: Inhibition of human CYP11B2 expressed in HEK293A cells using deoxycorticosterone as substrate pretreated for 1 hr followed by substrate addition measured after 1 hr by HTRF assay

Test [3] deals with T3, Cytochrome P450 11B2, mitochondrial (Mus musculus, UniProt P15539).
T3 sequence (P15539 whole entry): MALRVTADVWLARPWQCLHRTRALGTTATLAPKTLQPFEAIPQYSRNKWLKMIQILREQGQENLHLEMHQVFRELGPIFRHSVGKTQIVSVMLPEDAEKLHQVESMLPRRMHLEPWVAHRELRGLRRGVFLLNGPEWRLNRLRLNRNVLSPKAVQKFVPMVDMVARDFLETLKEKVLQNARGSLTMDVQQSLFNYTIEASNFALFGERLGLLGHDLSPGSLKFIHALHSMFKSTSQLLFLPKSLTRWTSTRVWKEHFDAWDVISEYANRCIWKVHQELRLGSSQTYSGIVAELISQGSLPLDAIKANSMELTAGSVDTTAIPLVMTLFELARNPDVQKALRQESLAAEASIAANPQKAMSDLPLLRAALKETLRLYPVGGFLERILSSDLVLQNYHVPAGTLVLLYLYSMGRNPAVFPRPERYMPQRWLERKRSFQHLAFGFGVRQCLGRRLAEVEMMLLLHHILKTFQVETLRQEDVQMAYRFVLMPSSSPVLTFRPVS
Description: Inhibition of mouse CYP11B2 expressed in HEK293 cells using deoxycorticosterone as substrate pretreated for 1 hr followed by substrate addition after 2 hrs by HTRF assay

Test [4] deals with Cynomolgus monkey. The test can be described thus: Decrease in plasma aldosterone level in furosemide-induced cynomolgus monkey at 3 mg/kg, po administered as single dose by radioimmunoassay. The class given is functional, organism-based. The following applies: Macaca fascicularis.
Test [5] can be described thus: Inhibition of monkey CYP11B2. Further details: species or system Macaca mulatta.
In test [6] the target is T4, Cytochrome P450 11B2, mitochondrial (Rattus norvegicus, UniProt P30099).
T4 sequence (P30099 whole entry): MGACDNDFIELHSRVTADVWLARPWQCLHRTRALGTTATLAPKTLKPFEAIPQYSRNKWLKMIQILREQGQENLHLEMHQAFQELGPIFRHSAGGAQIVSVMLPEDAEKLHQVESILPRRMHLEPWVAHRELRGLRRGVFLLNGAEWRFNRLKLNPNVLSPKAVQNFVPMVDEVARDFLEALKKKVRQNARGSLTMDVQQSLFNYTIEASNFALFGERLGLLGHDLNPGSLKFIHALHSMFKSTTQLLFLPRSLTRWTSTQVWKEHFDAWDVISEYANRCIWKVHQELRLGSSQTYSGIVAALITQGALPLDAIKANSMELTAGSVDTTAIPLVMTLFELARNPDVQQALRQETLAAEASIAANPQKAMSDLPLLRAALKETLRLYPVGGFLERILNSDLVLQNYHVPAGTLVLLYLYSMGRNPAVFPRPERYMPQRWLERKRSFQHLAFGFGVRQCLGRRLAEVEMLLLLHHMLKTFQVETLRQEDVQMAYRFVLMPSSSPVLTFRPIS
The test can be described thus: Inhibition of rat CYP11B2.

Take `Cc1ccc(Nc2ncncc2C(O)C2CCN(S(C)(=O)=O)CC2)cc1` (racemic): the IC50 (commonly the concentration that gives 50% inhibition) in test [1] turned out to be 19 nM; in test [2], 8 nM; in test [3] it was 1890 nM.

In the case of `CS(=O)(=O)N1CCC(C(O)c2cncnc2Nc2ccc(C#N)cc2)CC1` (racemic), the values for the half-inhibitory concentration (IC50) in test [1], in test [2] and in test [3] were 11 nM, 2 nM and 1340 nM, respectively.

Regarding `CC(O)(c1cncnc1Nc1ccc(F)cc1)C1CCN(S(C)(=O)=O)CC1` (racemic), the IC50 turned out to be 6 nM in test [1], 2 nM in test [2] and 102 nM in test [3].

`CS(=O)(=O)N1CCC(C(O)(c2cncnc2Nc2ccc(F)cc2)C(F)(F)F)CC1` (racemic): the outcome in test [4] was Active.

In the case of `CS(=O)(=O)N1CCC(C(O)c2cncnc2Nc2cccc3ccccc23)CC1` (racemic), the 50% inhibitory concentration (IC50) in test [1] is 110 nM; in test [2], 8 nM; in test [3], 2740 nM.

Regarding `CS(=O)(=O)N1CCC(O)(c2cncnc2Nc2ccc(F)cc2)CC1`, the half-maximal inhibitory concentration (IC50) in test [2] stood at 300 nM; in test [3], 1380 nM.

With `CS(=O)(=O)N1CCC(C(O)c2cncnc2Nc2ccccc2)CC1` (racemic), the IC50 amounted to 42 nM in test [1], 15 nM in test [2] and 1760 nM in test [3].

For the molecule `CS(=O)(=O)N1CCC(C(O)c2cncnc2Nc2ccc(F)cc2)C1` (mixture of isomers), the 50% inhibitory concentration (IC50) in test [2] is 144 nM; in test [3], 1470 nM.

For `CS(=O)(=O)N1CCC(C(O)c2cncnc2Cc2ccccc2)CC1` (racemic), in test [2], the IC50 is 83 nM.

As for `CCCCC(O)(c1cncnc1Nc1ccc(F)cc1)C1CCN(S(C)(=O)=O)CC1` (racemic), the 50% inhibitory concentration (IC50) came out at 124 nM in test [1], 48 nM in test [2] and 170 nM in test [3].

Turning to `OC(c1cncnc1Nc1ccc(F)cc1)C1CCNCC1` (racemic), the IC50 in test [2] came to 300 nM; in test [3] it was 1310 nM.

In the case of `CCCC(O)c1cncnc1Nc1ccc(F)cc1` (racemic), the 50% inhibitory concentration (IC50) turned out to be 181 nM in test [1], 75 nM in test [2] and 911 nM in test [3].

In the case of `CS(=O)(=O)N1CCC(CC(O)c2cncnc2Nc2ccc(F)cc2)CC1` (racemic), the IC50 came out at 192 nM in test [2] and 3130 nM in test [3].

In the case of `COc1ccc(Nc2ncncc2C(O)C2CCN(S(C)(=O)=O)CC2)cc1` (racemic), the IC50 in test [2] is 14 nM; in test [3], above 10000 nM.

As for `CS(=O)(=O)N1CCC(C(O)(c2cncnc2Nc2ccc(F)cc2)C(F)(F)F)CC1` (single isomer, unassigned; isomer 1), the IC50 is 1.1 nM in test [1], 0.73 nM in test [2] and 0.73 nM in test [3].

Consider `OC(c1ccccc1)c1cncnc1Nc1ccc(F)cc1` (racemic), for which the IC50 in test [1] amounted to 93 nM; in test [2] it was 30 nM; in test [3], 440 nM.

Regarding `CS(=O)(=O)N1CCC(C(O)c2cncnc2Nc2ccc(F)cc2)CC1` (racemic), the IC50 is 10 nM in test [1]; 2.7 nM in test [5]; 300 nM in test [6]; 3 to 3.1 nM in test [2]; 300 to 301 nM in test [3].

For `CS(=O)(=O)N1CCC(C(O)c2cncnc2Nc2ccc(C(F)(F)F)cc2)CC1` (racemic), the results for the IC50 in test [1], in test [2] and in test [3] were 16 nM, 3 nM and 798 nM, respectively.

Take `CS(=O)(=O)N1CCC(C(O)(c2cncnc2Nc2ccc(F)cc2)C(F)(F)F)CC1` (single isomer, unassigned; isomer 2): the half-maximal inhibitory concentration (IC50) in test [1] was above 300 nM; in test [2] it was above 100 nM; in test [3], above 100 nM.

Turning to `CS(=O)(=O)N1CCC(C(O)c2cncnc2Nc2cccc(F)c2)CC1` (racemic), the IC50 was 13 nM in test [1], 5 nM in test [2] and 1100 nM in test [3].

On to `CC(C)C(O)(c1cncnc1Nc1ccc(F)cc1)C1CCN(S(C)(=O)=O)CC1` (racemic), for which the results for the half-inhibitory concentration (IC50) in test [1], in test [2] and in test [3] were 13 nM, 5 nM and 21 nM, respectively.

Take `CS(=O)(=O)N1CCC(C(O)c2cncnc2Sc2ccc(F)cc2)CC1` (racemic): the concentration for half-maximal inhibition (IC50) in test [1] is 0.6 nM; in test [2], 0.4 nM; in test [3], 257 nM.

As to `CS(=O)(=O)N1CCC(C(=O)c2cncnc2Nc2ccc(F)cc2)CC1`, the concentration for half-maximal inhibition (IC50) in test [2] came out at 109 nM; in test [3], 5100 nM.

(Values after ChEMBL document CHEMBL4011612, “4-Anilino-pyrimidine, novel aldosterone synthase (CYP11B2) inhibitors bearing pyrimidine structures” (Bioorg Med Chem Lett, 2017).)
